Series [1] has as its system pancreatic cancer cell strain SUIT2. As to the kind of experiment: Apoptosis induction in SUIT2 by FACS and Western blotting (PARPp85, caspase-3). The format is cell-based. The conditions noted are these: 20 nM, in vitro. The protocol: In the same manner as that of Example 3, 20 nM of #10AmNA YB-1 antisense was introduced into the cells of the pancreatic cancer cell strain SUIT2 in vitro.

For series [2], the system named is ovarian cancer cell strain SKOV3. In words: Proliferation of SKOV3 cells. The format is cell-based.
A short description of series [3]: General blood and biochemical examinations, mice with Suit2-GR sc tumor. To be noted: SUIT2-GR and HCT116 models; 10 mg/kg BW once a week over three weeks.
Procedure: Subcutaneous tumor models were created by subcutaneously transplanting gemcitabine-resistant pancreatic cancer SUIT2-GR cells and large intestine cancer HCT116 cells to the thighs of nude mice. After tumors having a volume of 50 mm^3 were formed, 10 mg/kg BW of #10AmNA YB-1 antisense was administered from the caudal veins once a week over three weeks. The tumor diameters were measured over time.
In another series the test system is CD31. In words: Microvessel density by CD31 immunostaining in SUIT2-GR subcutaneous tumor. The format is in vivo, nude mice. The conditions noted are these: administration into the blood. From the text:
The neovascularity marker CD31 in the SUIT2-GR subcutaneous tumor of the treatment experiment (A) was immunostained. As a result, it was observed that the microvessel density was decreased by the administration of #10 AmNA YB-1 antisense into the blood, and thus inhibition of neovascularization was induced (FIG. 14C).

The subject of series [4] is YB-1. As to the kind of experiment: YB-1 expression in AS44 by real-time RT-PCR. In kind it is cell-based. To be noted: Lipofectamine RNAiMax. From the text: The #10 AmNA YB-1 antisense was introduced into cells of the gastric cancer cell strain AS44 using the reagent Lipofectamine RNAiMax, and expression of YB-1 was examined by real-time RT-PCR.
On the technique in general: Real-time PCR tracks product formation cycle by cycle.

In series [5] the test system is gemcitabine-resistant pancreatic cancer SUIT2-GR cells. As to the kind of experiment: Repetitive administration into blood, SUIT2-GR subcutaneous tumor growth. The format is in vivo, nude mice. To be noted: 10 mg/kg BW caudal vein once a week over three weeks, days 14 and 21. The protocol:
The tumor diameters were measured over time.

In series [6] the test system is ovarian cancer cell strain SKOV-3. As to the kind of experiment: Anticancer agent sensitivity enhancement, SKOV-3. In kind it is cell-based. To be noted: antisense 5 nM, 5-FU, gemcitabine. The protocol:
The #10 AmNA YB-1 antisense (5 nM) was introduced into cells of the pancreatic cancer cell strain MIA PaCa-2 (FIG. 19A) and ovarian cancer cell strain SKOV-3 (FIG. 19B) using the reagent Lipofectamine RNAiMax, and cell-killing effects of the anticancer agent observed in the presence and absence of the antisense were compared. […] The anticancer agent concentrations that provided equivalent cell-killing effects are shown in blue color (5-FU) or red color (gemcitabine).

Series [7] relates to pancreatic cancer cell strain SUIT-2. In words: Radiation sensitivity enhancement, SUIT-2. The format is cell-based. The conditions noted are these: antisense 10 nM. How it is done:
The #10 AmNA YB-1 antisense (10 nM) was introduced into cells of the pancreatic cancer cell strain SUIT-2 using the reagent Lipofectamine RNAiMax, and cell-killing effects of X-ray irradiation observed in the presence and absence of the antisense were compared.

The subject of series [8] is malignant mesothelioma cell strain H226. In words: H226 subcutaneous tumor model. In kind it is in vivo. To be noted: 10 mg/kg BW caudal vein once a week for two weeks, vs control group. The protocol:
Subcutaneous tumor models of the malignant mesothelioma cell strain H226 were prepared. […] A photograph of the subcutaneous tumor after the treatment is shown in the left panel.

The test system of series [9] is YB-1. As to the kind of experiment: YB-1 knockdown efficiency of NA, BNA and AmNA antisenses in HUVEC, HPAEC, MiaPaCa2 (real-time RT-PCR). The format is cell-based. The conditions noted are these: 24 hours, vs naturally occurring type and LNA type antisense. The protocol:
YB-1 naturally occurring type nucleic acid antisense (NA), LNA/BNA type nucleic acid antisense (BNA), and AmNA type nucleic acid antisense (AmNA) were introduced into cells of the vascular endothelial cell strains (HUVEC, HPAEC) and the pancreatic cancer cell strain (MiaPaCa2-) at various concentrations. RNAs were extracted 24 hours afterward, and the YB-1 expression was evaluated by real-time RT-PCR. […] The graphs show mean±SD (n=3, *P<0.01 vs. BNA, P<0.0001 vs. NA)

In series [10] the test system is malignant mesothelioma cell strain H226. As to the kind of experiment: Proliferation of H226 cells. The format is cell-based.
Series [11] relates to human large intestine cancer cells HCT116. As to the kind of experiment: Antitumor effect of YB-1 ASO AmNA into blood, HCT116 subcutaneous tumor. In kind it is in vivo, nude mice. How it is done:
Antitumor effect of administration into blood of YB-1 ASO of AmNA type, of which high safety was confirmed in Example 9 compared with ASO constituted with the conventional BNA, was examined. The human large intestine cancer cells HCT116 were subcutaneously transplanted to the thighs of nude mice. After subcutaneous tumors having a diameter of 6 to 7 mm (average tumor volume, 78 vs. 72 mm^3) were formed, 200 μg/200 μL of YB-1 ASO AmNA was administered (once every two weeks, total 2 times) into the blood from the caudal veins. The diameters of the tumors were measured over time, and tumor volumes calculated in accordance with a calculation formula, (Major axis)×(Minor axis)/2, were compared with those obtained with the control antisense group. The subcutaneous tumors were collected after one week from the second administration (day 28), and weights thereof were compared. In the YB-1 ASO AmNA group, both the tumor diameter and tumor weight were suppressed to about ⅕ of those observed with the control antisense group (FIG. 10, *P<0.05).

The subject of series [12] is YB-1. In words: YB-1 expression in SKOV3 by real-time RT-PCR. To be noted: Lipofectamine RNAiMax. The format is cell-based. From the text:
The #10 AmNA YB-1 antisense was introduced into cells of the ovarian cancer cell strain SKOV3 using the reagent Lipofectamine RNAiMax, and expression of YB-1 was examined by real-time RT-PCR.

Series [13] deals with YB-1. As to the kind of experiment: YB-1 knockdown siRNA vs AmNA-AON, protein level (Western blotting). The conditions noted are these: AsPC-1, MIA PaCa-2, Suit-2, 20 nM, 48 hours. The format is cell-based. How it is done: YB-1-siRNA or YB-1 #10AmNA was introduced (final concentration, 20 nM) into cells of the pancreatic cancer cell strains (AsPC-1, MIA PaCa-2, and Suit-2). After 48 hours, RNAs and proteins were extracted, and the YB-1 expression was evaluated by real-time RT-PCR and Western blotting at the mRNA level (A) and protein level (B), respectively. Both the knockdown efficiencies obtained with siRNA and #10 AmNA-AON were high at the mRNA level, and any clear difference was not observed between them. […] The graphs show mean±SD (n=3, *P<0.05).
A general note: A western blot detects proteins with antibodies after separation by electrophoresis.

For series [14], the system named is gastric cancer cell strain AS44-luc. In words: AS44-luc peritoneum inoculation model, survival. The format is in vivo. The conditions noted are these: 10 mg/kg BW intraperitoneally once a week for two weeks, vs control group. The protocol:
Peritoneum inoculation models of gastric cancer cell strain AS44-luc stably expressing luciferase were prepared. Then, after 1 week from the transplantation of the cancer cells, 10 mg/kg BW of #10 AmNA YB-1 antisense was intraperitoneally administered once a week for two weeks, and the tumor volume was evaluated over time in terms of the luciferase activity.

Regarding “TCTcctgcaccCTGg (TCTCCTGCACCCTGG; chemistry not fully specified) [#10AmNA]”, the “induction of apoptosis (FACS; PARPp85, caspase-3)” value in series [1] was “Induction of apoptosis was observed”. Besides, the suppression of proliferation entry in series [2] and in series [10] was “suppression of proliferation” throughout. The “safety with the every week administration protocol” value in series [3] is given as “any problem was not observed”. In addition, the “microvessel density (CD31)” value with CD31 was “decreased”. Further, the “suppression of YB-1 expression” value in the series on YB-1 [4] and in the series on YB-1 [12] was “Concentration-dependent suppression” throughout. Moreover, the subcutaneous tumor-suppressing effect entry in series [5] is reported as “significant subcutaneous tumor-suppressing effect”. The “cell-killing effects of the anticancer agent in presence of the antisense” value in [6] is listed as “Enhancement of the cell-killing effect”. Also, the “cell-killing effects of X-ray irradiation in presence of the antisense” value in series [7] is given as “Enhancement of the cell-killing effect”. In addition, the “increase of the tumor in terms of tumor weight” value in series [8] is “significantly suppressed”. For the same substance, in the series on YB-1 [9], the YB-1 knockdown efficiency result is on record as “significantly higher”. Besides, the “tumor diameter as fraction of control antisense group” value in series [11] (200 μg/200 μL caudal vein, once every two weeks, total 2 times) is reported as “about ⅕”. Further, the “tumor weight as fraction of control antisense group” value in series [11] (day 28) is given as “about ⅕”. In addition, in the series with YB-1 [13], the “knockdown efficiency at the protein level” value is on record as “clearly higher”. Besides, the “survival rate (Kaplan-Meier)” value in [14] is given as “significantly increased”.

For the origin of these results see patent US20170211073A1, “ANTISENSE ANTINEOPLASTIC AGENT” (priority 2014, published 2017).
